Laboratory results published in ChEMBL document CHEMBL5236638, “Optimization of First-in-Class Dual-Acting FFAR1/FFAR4 Allosteric Modulators with Novel Mode of Action” (ACS Med Chem Lett, 2022).
≈ marks a conversion by molar mass, not a printed value. Calls of active or inactive are those of the source. No cut-off for these calls is given here.

Experiments:
[1] = Lipophilicity, logD of the compound; format: physicochemical; conditions: octanol/water
[2] = Metabolic stability in CD-1 mouse liver S9 fraction assessed as half-life at 2 uM measured upto 40 mins in the presence of NADPH by HPLC-MS analysis; format: ADME, subcellular; conditions: s9, 40 min
[3] = Solubility of the compound in PBS buffer at pH 7.4; format: physicochemical
[4] = biological target: Free fatty acid receptor 1 (Homo sapiens, UniProt O14842); experiment: Agonist activity at N-terminal FLAG tagged human FFAR1 transfected in African green monkey COS-7 cells assessed as accumulation of inositol phosphate incubated for 90 mins by TopCount NXT counter based analysis; format: cell-based
[5] = tested on: Free fatty acid receptor 1 (Homo sapiens), O14842 [K259A]; experiment: Agonist activity at N-terminal FLAG tagged human FFAR1 K259A mutant transfected in African green monkey COS-7 cells assessed as accumulation of inositol phosphate by measuring change in efficacy incubated for 90 mins by TopCount NXT counter based analysis relative to control; format: cell-based
[6] = tested on: Free fatty acid receptor 1 (Homo sapiens), O14842 [L262W]; experiment: Agonist activity at N-terminal FLAG tagged human FFAR1 L262W mutant transfected in African green monkey COS-7 cells assessed as accumulation of inositol phosphate by measuring change in efficacy incubated for 90 mins by TopCount NXT counter based analysis relative to control; format: cell-based
[7] = tested on: Free fatty acid receptor 1 (Homo sapiens), O14842 [A83F]; experiment: Agonist activity at N-terminal FLAG tagged human FFAR1 A83F mutant transfected in African green monkey COS-7 cells assessed as accumulation of inositol phosphate incubated for 90 mins by TopCount NXT counter based analysis; format: cell-based; conditions: filed as agonist
[8] = biological target: T1, Free fatty acid receptor 4 (Homo sapiens, UniProt Q5NUL3); experiment: Agonist activity at N-terminal FLAG tagged human FFAR4 transfected in African green monkey COS-7 cells assessed as accumulation of inositol phosphate incubated for 90 mins by TopCount NXT counter based analysis; format: cell-based
T1 sequence (Q5NUL3 whole entry): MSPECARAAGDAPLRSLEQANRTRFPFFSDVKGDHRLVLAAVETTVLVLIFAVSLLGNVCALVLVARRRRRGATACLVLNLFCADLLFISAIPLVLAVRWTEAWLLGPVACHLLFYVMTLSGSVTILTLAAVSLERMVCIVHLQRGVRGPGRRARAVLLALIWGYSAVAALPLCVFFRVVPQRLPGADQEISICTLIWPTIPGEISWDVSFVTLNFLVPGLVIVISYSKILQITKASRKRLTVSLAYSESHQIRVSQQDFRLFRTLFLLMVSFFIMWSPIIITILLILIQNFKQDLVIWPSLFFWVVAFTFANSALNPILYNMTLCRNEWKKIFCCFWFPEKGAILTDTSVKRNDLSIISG

[9] = biological target: T2, Free fatty acid receptor 4 (Homo sapiens) (UniProt Q5NUL3); experiment: Agonist activity at N-terminal FLAG tagged human FFAR4 transfected in African green monkey COS-7 cells assessed as accumulation of inositol phosphate at 10 uM incubated for 90 mins by TopCount NXT counter based analysis relative to control; format: cell-based
T2 sequence (whole entry): T1 sequence (Q5NUL3 whole entry)

COS-7 [10] = experiment: Agonist activity at N-terminal FLAG tagged human FFAR1 Y12 mutant transfected in African green monkey COS-7 cells assessed as accumulation of inositol phosphate incubated for 90 mins by TopCount NXT counter based analysis; format: cell-based
COS-7 [11] = experiment: Agonist activity at N-terminal FLAG tagged human FFAR1 E65 mutant transfected in African green monkey COS-7 cells assessed as accumulation of inositol phosphate incubated for 90 mins by TopCount NXT counter based analysis; format: cell-based
COS-7 [12] = experiment: Agonist activity at N-terminal FLAG tagged human FFAR1 A66 mutant transfected in African green monkey COS-7 cells assessed as accumulation of inositol phosphate incubated for 90 mins by TopCount NXT counter based analysis; format: cell-based
COS-7 [13] = experiment: Agonist activity at N-terminal FLAG tagged human FFAR1 K259 mutant transfected in African green monkey COS-7 cells assessed as accumulation of inositol phosphate incubated for 90 mins by TopCount NXT counter based analysis; format: cell-based
COS-7 [14] = experiment: Agonist activity at N-terminal FLAG tagged human FFAR1 L262 mutant transfected in African green monkey COS-7 cells assessed as accumulation of inositol phosphate incubated for 90 mins by TopCount NXT counter based analysis; format: cell-based
[15] = tested on: Free fatty acid receptor 1 (Homo sapiens), O14842 [S8A]; experiment: Agonist activity at N-terminal FLAG tagged human FFAR1 S8A mutant transfected in African green monkey COS-7 cells assessed as accumulation of inositol phosphate by measuring fold decrease in potency incubated for 90 mins by TopCount NXT counter based analysis; format: cell-based; conditions: filed as agonist
[16] = tested on: Free fatty acid receptor 1 (Homo sapiens), O14842 [S8A]; experiment: Agonist activity at N-terminal FLAG tagged human FFAR1 S8A mutant transfected in African green monkey COS-7 cells assessed as accumulation of inositol phosphate by measuring decrease in efficacy incubated for 90 mins by TopCount NXT counter based analysis relative to control; format: cell-based
[17] = tested on: Free fatty acid receptor 1 (Homo sapiens), O14842 [A83F]; experiment: Agonist activity at N-terminal FLAG tagged human FFAR1 A83F mutant transfected in African green monkey COS-7 cells assessed as accumulation of inositol phosphate by measuring fold change in potency incubated for 90 mins by TopCount NXT counter based analysis; format: cell-based; conditions: filed as agonist

Chain of Free fatty acid receptor 1 (O14842 whole entry): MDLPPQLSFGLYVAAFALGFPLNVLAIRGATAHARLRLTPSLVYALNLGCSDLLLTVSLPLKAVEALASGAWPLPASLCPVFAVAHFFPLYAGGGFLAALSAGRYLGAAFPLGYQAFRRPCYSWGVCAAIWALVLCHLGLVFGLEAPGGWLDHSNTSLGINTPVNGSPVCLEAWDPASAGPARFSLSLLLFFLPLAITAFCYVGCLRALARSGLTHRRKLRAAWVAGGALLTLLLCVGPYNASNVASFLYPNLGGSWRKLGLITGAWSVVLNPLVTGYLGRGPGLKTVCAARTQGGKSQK
Chain of Free fatty acid receptor 1 (Homo sapiens), O14842 [A83F] (O14842 whole entry A83F): as the sequence (O14842 whole entry) above, with A83F counted along it
Chain of Free fatty acid receptor 1 (Homo sapiens), O14842 [S8A] (O14842 whole entry S8A): as the sequence (O14842 whole entry) above, with S8A counted along it
Chain of Free fatty acid receptor 1 (Homo sapiens), O14842 [L262W] (O14842 whole entry L262W): as the sequence (O14842 whole entry) above, with L262W counted along it
Chain of Free fatty acid receptor 1 (Homo sapiens), O14842 [K259A] (O14842 whole entry K259A): as the sequence (O14842 whole entry) above, with K259A counted along it

| Compound | logD [1] | t1/2 [2] [min] | solubility kinetic [3] [µM] | EC50 [4] [nM] | EC50 [8] [nM] | Emax [9] [%] | other results |
| --- | --- | --- | --- | --- | --- | --- | --- |
| Cc1cc(OCc2nc(N)nc(NCCc3cccc4c3OC(F)(F)O4)n2)cc(N2CCCC2=O)c1 | 3.42 | 0.8 | 13 (≈ 6.48 µg/mL) | – | – | – | – |
| Cc1cc(OCc2nc(N)nc(NCC(c3cccc(Cl)c3)N3CCCC3)n2)cc(N2CCCC2=O)c1 (centres undefined) | 2.79 | 3 | 294 (≈ 153 µg/mL) | 610 | – | – | – |
| COc1ccc(F)c(-c2ccc(COc3ccc4c(c3)[C@]3(CC4)C[C@H]3C(=O)O)cc2[C@@H]2CCCC2(C)C)c1 | – | – | – | – | – | – | Efficacy [5]: -25%; Efficacy [6]: -25%; Activity [7]: Active |
| Cc1cc(OCc2nc(N)nc(NCCc3ccccc3N3CCOCC3)n2)cc(N2CCCC2=O)c1 | 2.93 | 0.9 | 119 (≈ 59.9 µg/mL) | – | 81 | 30 | – |
| Cc1ccc(Nc2nc(N)nc(COc3cccc(N4CCCC4=O)c3)n2)cc1Cl | – | – | 28 (≈ 11.9 µg/mL) | 820 | 590 | – | Emax ([9]; filed as agonist): 50% |
| Cc1cc(OCc2nc(N)nc(NCCc3cc(Cl)ccc3Cl)n2)cc(N2CCCC2=O)c1 | 3.46 | 1.9 | 19 (≈ 9.26 µg/mL) | 1 | 2 | 30 | Activity (COS-7 [10]): inactive; Activity (COS-7 [11]): inactive; Activity (COS-7 [12]): inactive; Activity (COS-7 [13]): inactive; Activity (COS-7 [14]): inactive; fold change (FC) [15]: 10; Efficacy [16]: 35%; fold change (FC) [17]: 2 |
| Cc1cc(OCc2nc(N)nc(NCC(C)c3cccc(Cl)c3)n2)cc(N2CCCC2=O)c1 (centres undefined) | 3.93 | 0.8 | 14 (≈ 6.54 µg/mL) | 6 | 10 | 33 | – |
| COC(CNc1nc(N)nc(COc2cc(C)cc(N3CCCC3=O)c2)n1)c1cccc(Cl)c1 (centres undefined) | 3.52 | 2 | 36 (≈ 17.4 µg/mL) | 15 | 12 | 32 | – |
| Cc1ccc(Nc2nc(N)nc(COc3ccc4c(C)cc(=O)oc4c3)n2)cc1Cl | – | – | < 2 | 140 | 150 | – | Emax ([9]; filed as agonist): 45% |
| Cc1cc(OCc2nc(N)nc(NCCc3cccc(F)c3)n2)cc(N2CCCC2=O)c1 | 3.32 | 1.1 | 84 (≈ 36.7 µg/mL) | 50 | 29 | 35 | – |
| Cc1cc(OCCCS(C)(=O)=O)cc(C)c1-c1cccc(COc2ccc3c(c2)OC[C@H]3CC(=O)O)c1 | – | – | – | – | – | – | fold change (FC) [17]: 500 |
| Cc1cc(OCc2nc(N)nc(NCCc3cccc(Cl)c3)n2)cc(N2CCCC2=O)c1 | 3.77 | 2.3 | 11 (≈ 4.98 µg/mL) | 3 | 6 | – | Emax ([9]; filed as agonist): 43% |
| Cc1cc(OCc2nc(N)nc(NC3(Cc4cccc(Cl)c4)CC3)n2)cc(N2CCCC2=O)c1 | 3.82 | 0.7 | 23 (≈ 11 µg/mL) | 61 | – | – | – |
| Cc1cc(OCc2nc(N)nc(NCCC3CCCCC3(F)F)n2)cc(N2CCCC2=O)c1 (centres undefined) | 3.53 | 0.8 | 55 (≈ 25.3 µg/mL) | – | – | – | – |
